Results published in patent US20090326259A1, “NF-Kappabeta Activation Inhibitor” (Tokyo University of Marine Science and Technology, priority 2006, published 2009).

Test system: NF-κB
Assay: LPS-stimulated NF-κB activation in RAW264.7 murine macrophage (gel shift with biotin-labelled NF-κB consensus sequence)
Assay type: cell-based
Conditions: RAW264.7, 1 μM compound 22 h, then 1 μg/ml LPS 2 h; FIG. 2
Description: [Measurement of LPS-stimulated NF-κB activation in RAW264.7 murine macrophage strain] The murine macrophage RAW264.7 is preserved in DMEM containing 10% fetal bovine serum. After treatment in DMEM with 1 μM cycloartenyl ferulate (CAF) for 22 h, it is further stimulated for 2 h in 1 μg/ml lipopolysaccharide (LPS).
The nucleoprotein of RAW264.7 cell is extracted with Transfactor Extraction kit (BD Biosciences, USA), and then is bound with the following NF-κB consensus sequence of biotin-labeling reaction for 60 min in reaction solution consisting 100 mM HEPES (pH 7.6), 5 mM EDTA, 50 mM ammonium sulfate, 5 mM DTT, 150 mM KCl, 1% (v/v) Tween20 and 0.0001% poly (dI-dC) (Amersham Biosciences, USA).
Except these experimental groups, control group reacting with 90-fold unlabeled consensus sequence, along with supershift group using anti-p50 polyclonal antibody (Abcam, USA) and anti-p65 polyclonal antibody (Santa Cruz Biotechnology, INC., USA) are established to make comparison. […]
The peroxidase activity is detected with Immobilon Western Chemiluminescent HRP substrate (Millipore, USA) and the luminous intensity is quantified by Image J (National Institutes of Health, USA) as shown in FIG. 2. […]

Which NF-κB activation does the source give for `COc1cc(/C=C/C(=O)O)ccc1O` [ferulic acid] here?
Its NF-κB activation is “barely inhibits”.
